Experimental data reported in patent US5260271A, “Nisin compositions for use as enhanced broad range bactericides” (Applied Microbiology, Inc., priority 1992, dated 1993).

Assays:
E. coli = experiment: Bactericidal activity, percent bacterial survival of E. coli suspension; format: cell-based, Escherichia coli; details: for Percentage E. coli Survival at 2 hours: 20 mM Tris pH 8.0
Procedure: (§1) All tests in the following examples were performed at 37° C. The efficacy of the enhanced broad range bactericides was determined by assaying bactericidal activity as measured by the percent bacterial survival after treatment with the bactericide. Generally, after incubation of a 10^7 cell per ml suspension of target species with the novel bactericide for specified lengths of time, bacteria were collected by centrifugation for 2 minutes. […] Surviving bacteria were determined by scoring colony forming units (CFU) after incubation for 24-48 hours at 37° C.
The effects of the bactericide were measured as a function of percentage bacteria survival after 2 hours.
Incubations were performed in 20 mM Tris, […] at 37° C.

Listeria monocytogenes [1] = experiment: Bactericidal activity towards Listeria monocytogenes in milk; format: cell-based; details: for % Survival 2 hr: L. monocytogenes in milk at 37° C.
Procedure: (§2) All tests in the following examples were performed at 37° C. The efficacy of the enhanced broad range bactericides was determined by assaying bactericidal activity as measured by the percent bacterial survival after treatment with the bactericide. Generally, after incubation of a 10^7 cell per ml suspension of target species with the novel bactericide for specified lengths of time, bacteria were collected by centrifugation for 2 minutes. […] Surviving bacteria were determined by scoring colony forming units (CFU) after incubation for 24-48 hours at 37° C. An effective bactericide according to this invention is one which allows less than 0.1% of the initial viable count of the bacteria to survive.
An example of where the application of nisin is limited by its available activity is illustrated by the data in Table 15B.
(§3) Incubations were in milk at 37° C.

Streptococcus agalactiae = experiment: Bactericidal activity towards Streptococcus agalactiae in milk; format: cell-based; details: for % survival at 2h: S. agalactiae in milk at 37° C.
Procedure: as §2
However, the combination of the two agents, 0.1% monolaurin and nisin 0.2 μg/ml, is extremely potent towards S. agalactiae. […] Thus, when the application of nisin is limited by its available activity, a bactericide comprising nisin with a surfactant can be expected to be more useful.
as §3

Staphylococcus aureus = experiment: Bactericidal activity towards Staphylococcus aureus, percent survival; format: cell-based; details: S. aureus
Procedure: as §2
Incubations were performed in 50 mM sodium acetate buffer, pH 5.0 or 20 m
TrisHCl buffer, pH 8.0 at 37° C.

[2] = system: S. typhimurium on chicken muscle; experiment: Bactericidal activity towards S. typhimurium on chicken muscle (unadhered cells); format: cell-based, Salmonella typhimurium
Procedure: Incubations were performed in either 50 mM sodium acetate, pH 5.0, or 20 mM Tris, pH 8.0 at 37° C.
Cubes of chicken muscle were cleansed with sodium hypochlorite and povidone iodine prior to use. To inoculate the tissue, the cubes of chicken muscle were dipped into a 10^8 cells/ml suspension of S. typhimurium in 20 mM Tris HCl, pH 8.0. Excess moisture was removed from dipped cubes by tapping. The chicken samples were placed into sufficient buffer containing the nisin composition to cover the tissue and incubated for 2 hours at 37° C. after which the tissue was removed to sufficient Phage buffer to cover the tissue. The bacteria remaining in the test solution were collected by centrifugation, washed with Phage buffer, and combined with bacteria washed from the tissue by Phage buffer. The combined samples (termed "unadhered" cells) were serially diluted and 100 μl aliquots were plated for determination of surviving bacteria.
(§4) Cubes of chicken muscle were cleansed with sodium hypochlorite and povidone iodine prior to use. To inoculate the tissue, the cubes of chicken muscle were dipped into a 10^8 cells/ml suspension of S. typhimurium in 20 mM Tris HCl, pH 8.0. Excess moisture was removed from dipped cubes by tapping. The tissue was placed into sufficient buffer containing the nisin compositions to cover the tissue, and incubated for 2 hours at 37° C. after which the tissue was removed to sufficient Phage buffer to cover the tissue. The bacteria remaining in the test solution were collected by centrifugation, washed with Phage buffer, and combined with bacteria washed from the tissue by Phage buffer. The combined samples (termed "unadhered" cells) were serially diluted and 100 μl aliquots were plated for determination of surviving bacteria.
as §4, with “cleaned” for “cleansed”, “50” for “20”, “sodium acetate buffer,” for “Tris HCl,”, “5.0.” for “8.0.”, “containing” for “containing the”

Coryneform bacteria = experiment: Bactericidal activity towards Coryneform bacteria; format: cell-based
Procedure: as §2
(§5) Incubations were performed in 20 mM TrisHCl, pH 8.0 at 37° C.

K. pneumoniae = experiment: Bactericidal activity, percent bacterial survival of K. pneumoniae suspension; format: cell-based, Klebsiella pneumoniae; details: Nisin 0, EDTA 20 mM, 20 mM Tris pH 8.0
Procedure: as §1
The effect was measured as a function of percentage bacterial survival after 2 hours.

Listeria monocytogenes [3] = experiment: Bactericidal activity towards Listeria monocytogenes in Tris buffer; format: cell-based; details: L. monocytogenes; pH 8.0, Nisin 0, EDTA 1.0 mM
Procedure: as §2, §5

Streptococcus mutans = experiment: Bactericidal activity and kinetics towards Streptococcus mutans in Tris buffer; format: cell-based; details: S. mutans, Nisin 0 with 1.0 mM EDTA, pH 7.3
Procedure: All tests in the following examples were performed at 37° C. The efficacy of the enhanced broad range bactericides was determined by assaying bactericidal activity as measured by the percent bacterial survival after treatment with the bactericide. Generally, after incubation of a 10^7 cell per ml suspension of target species with the novel bactericide for specified lengths of time, bacteria were collected by centrifugation for 2 minutes. The bacterial pellet was washed free of the bactericide with a rescue buffer, termed herein Phage buffer (50mM Tris-HCl buffer pH 7.8, 1 mM MgSO4, 4 mM CaCl2, 0.1 M Nacl, and 0.1% gelatin), resuspended and serially diluted into Phage buffer, and 100 μl of the suspended bacteria were spread on nutrient agar plates. Surviving bacteria were determined by scoring colony forming units (CFU) after incubation for 24-48 hours at 37° C.
The suspensions were incubated for various times ranging from 0.5 to 60 minutes with the bactericides.
Incubations were performed in 20 mM TrisHCl, pH 7.3 at 37° C.

S. typhimurium = experiment: Bactericidal activity, percent bacterial survival of S. typhimurium suspension; format: cell-based, Salmonella typhimurium; details: for % Survival at 2 hours: S. typhimurium
Procedure: as §1
The control (Test #1) is identical to the control of Example 1 (Table 1).

Triton X-100
Percentage E. coli Survival at 2 hours (E. coli; Nisin 0, EDTA 0 mM, Triton X-100 1.0%): 100% | bactericidal activity towards E. coli (E. coli; Triton X-100 alone, tests #3 and #4 of Table 4): no significant bactericidal activity

monooleate
% Survival 2 hr (Listeria monocytogenes [1]; Nisin 0, Monooleate 0.1%): 67% | % Survival 2 hr (Listeria monocytogenes [1]; Nisin 0, Monooleate 1.0%): 63% | bactericidal activity towards L. monocytogenes (Listeria monocytogenes [1]; monooleate by itself, in milk): no bactericidal activity

CCCCCCCCCCCC(=O)OCC(O)CO (centres unmarked) [Monolaurin, monolaurin]
% survival at 2h (Streptococcus agalactiae; Nisin 0, Monolaurin 0.01%): 100% | % survival at 2h (Streptococcus agalactiae; Nisin 0, Monolaurin 0.1%): 4.5% | bactericidal activity towards Streptococcus agalactiae (Streptococcus agalactiae; monolaurin at concentrations up to 0.1%, in milk): little significant bactericidal activity

O=C(O)CN(CCN(CC(=O)O)CC(=O)O)CC(=O)O [EDTA]
% Survival 2 hr (Staphylococcus aureus; pH 5.0, Nisin 0, EDTA 3.0 mM): 100% | % Survival 2 hr (Staphylococcus aureus; pH 8.0, Nisin 0, EDTA 0.3 mM): 100% | % Survival 2 hr (Staphylococcus aureus; pH 8.0, Nisin 0, EDTA 1.0 mM): 81% | % Survival 2 hr (Staphylococcus aureus; pH 8.0, Nisin 0, EDTA 3.0 mM): 100% | % Survival 2 hr (Staphylococcus aureus; pH 8.0, Nisin 0, EDTA 10 mM): 100% | % Survival 2 hr (Staphylococcus aureus; pH 8.0, Nisin 0, EDTA 30 mM): 100% | % survival at 1 min. (E. coli; E. coli, Nisin 0, 1.0 mM EDTA, 20 mM Tris pH 7.0): 100% | Percentage E. coli Survival at 2 hours (E. coli; Nisin 0, EDTA 20 mM, Triton X-100 0%): 14.5% | % Survival at 2 hours ([2]; Table 9, chicken muscle, pH 8.0, Nisin 0, EDTA 1.0 mM, BSA 1.0%): 27% | % Survival at 2 hours (Unadhered cells) ([2]; Table 10, chicken muscle, Nisin 0, EDTA 10 mM, Methyl Paraben 0%, 50 mM Na acetate buffer, pH 5.0): 11.8% | % Survival at 2 hours (Unadhered cells) ([2]; chicken muscle, pH 5.0, Nisin 0, EDTA 10 mM): 6.4% | % Survival at 2 hours (Unadhered cells) ([2]; chicken muscle, pH 8.0, Nisin 0, EDTA 10 mM): 5.2% | % Survival 2 hr (Coryneform bacteria; pH 8.0, Nisin 0, EDTA 0.3 mM): 4.6% | % Survival 2 hr (Coryneform bacteria; pH 8.0, Nisin 0, EDTA 1.0 mM): 3.6% | % Survival 2 hr (Coryneform bacteria; pH 8.0, Nisin 0, EDTA 3.0 mM): 8% | % Survival 2 hr (Coryneform bacteria; pH 8.0, Nisin 0, EDTA 10 mM): 36% | % Survival at 2 hours (K. pneumoniae): 22% | % Survival after 2 hr (Listeria monocytogenes [3]): 84% | % Survival (Streptococcus mutans; incubation 3 min): 100% | % Survival (Streptococcus mutans; incubation 60 min): 100% | Percentage S. typhimurium Survival at 3 hours (S. typhimurium; Nisin 0, EDTA 20 mM, 20 mM Tris pH 8.0, 37° C): 2.5% | % Survival at 2 hours (S. typhimurium; Nisin 0, EDTA 1.0 mM, BSA 1.0%, 20 mM Tris pH 8.0): 63% | % Survival at 2 hours (S. typhimurium; pH 5.0 (50 mM sodium acetate), Nisin 0, EDTA 2.0 mM): 38.7% | % Survival at 2 hours (S. typhimurium; pH 5.0, Nisin 0, EDTA 10 mM): 15.2% | % Survival at 2 hours (S. typhimurium; pH 5.0, Nisin 0, EDTA 50 mM): 3.5% | % Survival at 2 hours (S. typhimurium; pH 8.0 (20 mM Tris), Nisin 0, EDTA 2.0 mM): 8.7% | % Survival at 2 hours (S. typhimurium; pH 8.0, Nisin 0, EDTA 10 mM): 14% | % Survival at 2 hours (S. typhimurium; pH 8.0, Nisin 0, EDTA 50 mM): 11.4% | % Survival at 2 hours (S. typhimurium; pH 8.0, Nisin 0, EDTA 100 mM): 45% | Percentage S. typhimurium Survival at 3 hours (S. typhimurium; Table 3: Nisin 0, EDTA 20 mM, Tween20 0%, 20 mM Tris pH 8.0): 2.5%
